Measured values from patent US20110046058A1, “COMPOSITIONS FOR ENTERAL ABSORPTION AND SUSTAINED ACTION OF LEPTIN-RELATED PEPTIDES USEFUL IN THE TREATMENT OF OBESITY AND LEPTIN-MODULATED DISEASE” (AEGIS THERAPEUTICS LLC, priority 2009, published 2011).
Read-outs that look alike come from different tables or passages of the source. Where a SMILES comes first, the peptide text is derived from it.

Experiments:
[1] = mouse, in vivo, 1 mg
Experimental: (§1) Six week-old male Swiss Webster mice weighing approximately 30 gm were maintained at a constant temperature (24 C) with lights on from 07:00 to 19:00 h, and allowed food and water ad libitum until used for uptake studies. […] For sc, im, and ip delivery, the peptide was dissolved in sterile phosphate buffered saline (PBS, pH 7.2) at a concentration of 1 mg/200 μL as described previously containing 0.18% tetradecyl-beta-D-maltoside. For oral gavage [D-Leu-4]OB3 was dissolved in 0.3% dodecyl-beta-D-maltoside reconstituted in PBS (pH 7.2) at a concentration of 1 mg/200 μL. At time zero (0), a single 200 μL sc, im, ip or oral dose of mouse [D-Leu-4]OB3 was given to each of six mice per time point. Following peptide administration, the mice were transferred to separate cages for the designated time period.
(§2) Five, 10, 20, 40, 60, or 120 minutes after peptide delivery, the mice were anesthetized with isoflurane (5%) and exsanguinated by cardiac puncture. The blood was collected in sterile nonheparinized plastic centrifuge tubes and allowed to stand at room temperature for 1 h. The clotted blood was rimmed from the walls of the tubes with sterile wooden applicator sticks. Individual serum samples were prepared by centrifugation for 30 min at 2600×g in an Eppendorf™ 5702R, A-4-38 rotor (Eppendorf North America, Westbury, N.Y., USA), and stored frozen until assayed for mouse [D-Leu-4]OB3 content by competitive ELISA.
(§3) The [D-Leu-4]OB3 competitive ELISA assay was carried out as follows. 96-well polystyrene plates (Pierce Biotechnology, Inc., Rockford, Ill., USA) were coated with 100 μL of a 5 ug/ml solution of BSA-conjugated mouse [D-Leu-4]OB3 (QED Bioscience, San Diego, Calif.) in carbonate-bicarbonate buffer (pH 9.4). The coated plates were incubated overnight at 4 C. Unoccupied sites were blocked with 200 μL StartingBlock™ in PBS (Pierce Biotechnology Inc., Rockford, Ill., USA) for 2 h at room temperature. Mouse [D-Leu-4]OB3 standards ranging from 5 to 10,000 ng/ml are prepared in PBS (pH 7.2). In a separate incubation, 100 μL of mouse [D-Leu-4]OB3 primary antibody raised in New Zealand White rabbits (QED Bioscience, San Diego, Calif.) and diluted to 1:5000 in StartingBlock™, or 100 μL of the primary antibody+50 μL of each standard or serum sample are added to 500 μL microcentrifuge tubes and incubated for 1 h at 37 C. At the end of the incubation period, 100 μL of each antibody-bound standard or sample were added to the wells and incubated for 1 h at room temperature. HRP-conjugated goat-anti-rabbit IgG (Pierce Biotechnology Inc, Rockford, Ill., USA) was used as the secondary antibody. 100 μL was added to each well and incubated for 1 h at room temperature. At the end of the incubation period, 100 μL of ABTS substrate (Pierce Biotechnology Inc, Rockford, Ill., USA) was added to each well and incubated for 30 minutes on a rotary rocker. Color development was stopped with 1% SDS. Absorbance was read at 405 nm with a Molecular Devices microplate reader (MDS Sciex, Concord, Ontario Canada). Each sample was assayed in triplicate. […] The relative bioavailability was determined by plotting the serum concentrations of mouse [D-Leu-4]OB3 vs. time following ip, sc, or im delivery using the graphics program SigmaPlot™ 8.0 (SPSS Science, Chicago, Ill., USA). The area under each curve (AUC) was calculated with a function of this program.

[2] = mouse, in vivo
Experimental: (§4) Six week-old male Swiss Webster mice weighing approximately 30 g were obtained from Taconic Farms (Germantown, N.Y., USA). The animals were housed three per cage in polycarbonate cages fitted with stainless steel wire lids and air filters, and supported on ventilated racks (Thoren Caging Systems, Hazelton, Pa., USA) in the Albany Medical College Animal Resources Facility. The mice were maintained at a constant temperature (24° C.) with lights on from 07:00 to 19:00 h, and allowed food and water ad libitum until used for uptake studies.
(§5) Following peptide administration the mice were transferred to separate cages for the designated time period.
(§6) Five, 10, 20, 40, 60, or 120 min after peptide delivery, the mice were anesthetized with isoflurane (5%) and exsanguinated by cardiac puncture. The blood was collected in sterile nonheparinized plastic centrifuge tubes and allowed to stand at room temperature for 1 h. The clotted blood was rimmed from the walls of the tubes with sterile wooden applicator sticks.
(§7) The coated plates were incubated overnight at 4° C. Unoccupied sites were blocked with 200 μL StartingBlock™ in PBS (Pierce Biotechnology Inc., Rockford, Ill., USA) for 2 h at room temperature. […] At the end of the incubation period, 100 μL of each antibody-bound standard or sample was added to the wells and incubated for 1 h at room temperature. HRP-conjugated goat-anti-rabbit IgG (Pierce Biotechnology Inc. Rockford, Ill., USA) was used as the secondary antibody. 100 μL was added to each well and incubated for 1 h at room temperature.

[3] = mouse, in vivo; remark: listed apart in the source
Experimental: as §1, §2, §3

[4] = mouse, in vivo; remark: listed apart in the source
Experimental: as §4, §5, §6, §7

[5] = in vivo
Text: (§8) Typically, an acceptable daily intake for humans is about 1% of the NOAEL, which translates to about 14-21 grams, or 14 million micrograms to 21 million micrograms, per day, indefinitely.

[6] = FAO/WHO report; cited from earlier work
[7] = NOAEL of alkylsaccharide (FAO/WHO report); settings: per day, indefinitely
Text: as §8

CC(C)C[C@@H](NC(=O)[C@H](CO)NC(=O)[C@H](CS)NC(=O)[C@@H](N)CO)C(=O)N1CCC[C@H]1C(=O)N[C@@H](CCC(N)=O)C(=O)N[C@H](C(N)=O)[C@@H](C)O [mouse [D-Leu-4]OB3] (HELM PEPTIDE1{S.C.S.[dL].P.Q.T.[am]}$$$$V2.0; N-terminus assumed)
AUC ([1]; im): 24700 ng·h/mL | AUC ([1]; ip): 17900 ng·h/mL | AUC ([1]; po): 9320 ng·h/mL | AUC ([1]; sc): 19700 ng·h/mL | Cmax ([2]; im, 1 mg): 46600 ng/mL | Tmax ([2]; im, 1 mg): 5 min | AUC ([2]; im, 1 mg, AUC): 24700 ng·h/mL | half-life ([2]; im, 1 mg, t1/2 (serum half-life)): 48.8 min | AUC ([2]; inhaled or intranasal, 1 mg, AUC1): 15400 ng·h/mL | AUC ([2]; inhaled or intranasal, 1 mg, AUC2): 56900 ng·h/mL | half-life ([2]; inhaled or intranasal, t1/2 1): 7 min | half-life ([2]; inhaled or intranasal, t1/2 1 + t1/2 2 (overall half-life)): 41.1 min | half-life ([2]; inhaled or intranasal, t1/2 2): 34.1 min | Cmax ([2]; ip, 1 mg): 22500 ng/mL | Tmax ([2]; ip, 1 mg): 5 min | AUC ([2]; ip, 1 mg, AUC): 17900 ng·h/mL | half-life ([2]; ip, 1 mg, t1/2 (serum half-life)): 30 min | Cmax ([2]; sc, 1 mg): 35100 ng/mL | Tmax ([2]; sc, 1 mg): 5 min | AUC ([2]; sc, 1 mg, AUC): 19700 ng·h/mL | half-life ([2]; sc, 1 mg, t1/2 (serum half-life)): 35 min | Relative Oral Bioavailability Compared to Three Injection Modes (% of AUC achieved by each respective injection) [3]: 52.2% of IP AUC | Relative Oral Bioavailability Compared to Three Injection Modes (% of AUC achieved by each respective injection) ([3]; po): 37.8% of IM AUC | CL1 [4]: 1.08 mL/min | CL2 [4]: 0.29 mL/min | Relative bioavailability [4]: 4.0 | kelim1 [4]: 0.0986 min⁻¹ | kelim2 [4]: 0.0203 min⁻¹ | Relative bioavailability ([4]; im): 1.4 | AUC ([4]; im, 1 mg): 1,481,060 ng/ml/min | CL (plasma clearance) ([4]; im, 1 mg): 0.68 mL/min | Vd (apparent volume of distribution) ([4]; im, 1 mg): 29.4 mL | CL1 + CL2 (overall clearance) ([4]; inhaled or intranasal): 1.37 mL/min | Vd1 ([4]; inhaled or intranasal): 1.1 mL | Vd1 + Vd2 (overall volume of distribution) ([4]; inhaled or intranasal): 15.4 mL | Vd2 ([4]; inhaled or intranasal): 14.3 mL | Cmax2 ([4]; inhaled or intranasal, 1 mg): 69,069 ng/ml | Tmax2 ([4]; inhaled or intranasal, 1 mg): 60 min | tmax1 ([4]; inhaled or intranasal, 1 mg): 10 min | Relative bioavailability ([4]; ip): 1.0 | AUC ([4]; ip, 1 mg): 1,072,270 ng/ml/min | CL (plasma clearance) ([4]; ip, 1 mg): 0.93 mL/min | Vd (apparent volume of distribution) ([4]; ip, 1 mg): 65.5 mL | Relative bioavailability ([4]; sc): 1.1 | AUC ([4]; sc, 1 mg): 1,182,498 ng/ml/min | CL (plasma clearance) ([4]; sc, 1 mg): 0.85 mL/min | Vd (apparent volume of distribution) ([4]; sc, 1 mg): 42.9 mL | t1/2 (serum half-life) ([4]; sc, 1 mg): 34.0 min

sucrose dodecanoate
amount a 70 kilogram person can consume per day without any observable adverse effect [5]: 1400-2100 grams | NOAEL [6]: 20-30 grams/kilogram/day | acceptable daily intake for humans (about 1% of the NOAEL) [7]: 14-21 grams
